The subject of data set [1] is rats. Kind of data set: Rat MCAO ischemia model. The data set is classed as in vivo. The settings on record: in thirds at 10 min, 1 h and 2 h. How it is done: A. The hydrochloride salt of (±)-N-(2-chloro-5-methylthiophenyl)-N′-(3-methylsulfinylphenyl)-N′-methylguanidine (compound (I)) was tested in the rat MCAO ischemia model with % reduction in total lesion volume (mm^3) determined by the following protocol.
Rats were anaesthetized with isoflurane and focal ischemia was induced by directly ligating the main trunk of MCA using a bipolar electrocoagulor. Coronal sections (seven sections, 2.0 mm intervals) were collected and incubated in 2,3,5-triphenyltetrazolium chloride (TTC) solution for 15 minutes at 37° C., then fixed in 4% paraformaldehyde solution in the dark at 4° C. for at least 48 hours. Seven sections of each brain were photographed and analyzed. The areas that were not stained red with TTC were measured as infarction.
The test animals were treated with the test compound and control (mannitol) as follows. Ten minutes after the MCAO incident the test animals were administered (i.v. infusion/10 minutes) with one third of the total dose of the test compound (total doses specified below); 1 hour after that first dosing the test animals were given another one third of the total dose of the test compound; and then 2 hours after that first dosing the test animals were given another one third of the total dose of the test compound. Mannitol was administered to the control group at the first dosing only.
Sprague-Dawley rats with body weights of 270-320 grams were used in the study.

Data set [2] deals with rats. The data set is described as follows: Rat rotarod motor coordination test. The data set is classed as in vivo. Here is the method: The effects of the hydrochloride salt of (t)-N-(2-chloro-5-methylthiophenyl)-N′-(3-methylsulfinylphenyl)-N′-methylguanidine (compound (I)) on motor coordination were assessed using the rotarod test. Drug solutions were administered i.v. through the tail vein of test rats in a volume of 5.0 ml/kg at a rate of 1 ml/min. The percentage of animals in each treatment group that fell from the rotarod at each of the four time points tested is summarized in the following Table I. Control was 20% C.D. N in each of the Tables below specifies the number of animals in each test group.
The latency for falling from the rotarod was statistically analyzed using analysis of variance (ANOVA), and a Neumann Keuls post-hoc was applied when appropriate. […] In FIG. 1, “**” designates P<0.01 and “***” designates P<0.001.
The acetate salt of (−)-N-(2-chloro-5-methylthiophenyl)-N′-(3-methylsulfinylphenyl)-N′-methylguanidine was also tested in the same rotarod assay protocol as described in Part A above. Drug solutions were administered i.v. through the tail vein in a volume of 5 ml/kg at a rate of 1 ml/min. In Table II, Control (1) is 60 mM Acetate Buffer in 0.3M mannitol at 0.06 and 0.125 mg/kg doses and Control (2) is 60 mM Acetate Buffer in 0.3M mannitol at 0.25 and 0.5 mg/kg doses.
The acetate salt of (+)-N-(2-chloro-5-methylthiophenyl)-N′-(3-methylsulfinylphenyl)-N′-methylguanidine was also tested in the same rotarod assay protocol as described in Part A above. Drug solutions were administered i.v. through the tail vein in a volume of 5 ml/kg at a rate of 1 ml/min. In Table III, Control (1) is 60 mM Acetate Buffer in 0.3M mannitol at 0.06 and 0.125 mg/kg doses and Control (2) is 60 mM Acetate Buffer in 0.3M mannitol at 0.25 and 0.5 mg/kg doses.
The results for compounds of the invention can be compared to those obtained for MK-801, i.e. (+)-5-methyl-10,11-dihydro-5H-dibenzo[a,d]cyclohepten-5,10-imine maleate. In the rotarod test for MK-801, drug solutions were administered i.v. through the tail vein of each test rat in a volume of 5 ml/kg at a rate of 1 ml/min. The control was 0.9% saline solution.

In the next data set the test system is rat pups. The data set is described as follows: Rat pup hypoxia-ischemia model. It is filed as in vivo. How it is done: A. The hydrochloride salt of (±)-N-(2-chloro-5-methylthiophenyl)-N′-(3-methylsulfinylphenyl)-N′-methylguanidine was tested in the rat pup hypoxia-ischemia model with % reduction in total lesion volume determined at the specified test dose. A rat pup hypoxia-ischemia assay protocol of the following protocol was employed.
8 day-old rat pups weighing 17-23 grams were anaesthetized with isoflurane and the left common carotid artery ligated. Immediately prior to the hypoxia-ischemia (H-I) insult a test group of animals was injected intraperitoneally with 2 mg/kg, 5 mg/kg or 10 mg/kg of the test compound and a control group was treated with a corresponding dose of mannitol. Then, immediately after the H-I insult, the animals received a second equivalent dose, i.e. the test group of animals was injected intraperitoneally with 2 mg/kg (total 4 mg/kg administered in the two doses), 5 mg/kg (total 10 mg/kg administered in the two doses) or 10 mg/kg (total 20 mg/kg administered in the two doses) of the test compound and a control group was treated with a corresponding dose of mannitol. The animals were then allowed to recover for 1-2 hours and then exposed to 7.8% O2 in nitrogen for 78 minutes in an incubator at 36.5° C. The rat pups were returned to mothers immediately after the H-I insult. The animals were sacrificed two days after H-I insult, their brain was removed and cut into four 2 mm thick slices prior to staining with 2% 2,3,5-triphenyltetrazolium chloride (TTC) solution. The sections were then fixed with 4% paraformaldehyde solution in the dark at 4° C. for at least 48 hours. Four sections from each brain were imaged and analyzed using the IPLab system. The lesion area which was not stained red with TTC was measured as infarction.
B. The acetate salt of (+)-N-(2-chloro-5-methylthiophenyl)-N′-(3-methylsulfinylphenyl)-N′-methylguanidine was also tested in the rat pup hypoxia-ischemia model with % reduction in total lesion volume determined by the same protocol as specified in Part A above, except the rat pups were exposed to 7.8% O2 in nitrogen for 85 minutes.

The conditions of data set [3]: cited from earlier work.
The subject of the next data set is mouse. The conditions noted are these: in vivo; cited from earlier work.
Data set [4] relates to rats. The data set is described as follows: Irwin general behavior screen. It is filed as in vivo, rat. The conditions noted are these: times in minutes. An excerpt: See S. Irwin, Animal and Clinical Pharmacologic Techniques in Drug Evaluation, pages 36-54 (Year Book Medical Publishers, Chicago), which details the protocol of the Irwin behavior screen.
Where [5] appears, read: total dose 2.25 mg/kg i.v. infusion.
Setting [6] is: total dose 4.5 mg/kg i.v. infusion, 4.5 mg/kg.
Setting [7] is: total dose 9 mg/kg i.v. infusion, 9 mg/kg.

Counter-ions that a name gives are not always drawn.

In the case of `CSc1ccc(Cl)c(NC(=N)N(C)c2cccc([S+](C)[O-])c2)c1` (single isomer, unassigned; (+)) [compound (IB), (+)-N-(2-chloro-5-methylthiophenyl)-N′-(3-methylsulfinylphenyl)-N′-methylguanidine], the “% reduction in total lesion volume” value was determined as 23% in the data set on rats [1] (setting [5]); 32% in the data set on rats [1] (setting [6]); 34% in the data set on rats [1] (setting [7]); 78% in the data set on rat pups (i.p. total dose of 10 mg/kg, 7.8% O2 for 85 minutes); 93% in the data set with rat pups (i.p. total dose of 20 mg/kg, 7.8% O2 for 85 minutes). Also, in the data set on rats [2] (rat, in vivo), the “latency for falling from the rotarod (falling times)” value is “no statistically significant differences”. Moreover, the “latency for falling from the rotarod vs control groups” value in the data set on rats [2] (rat, in vivo) is “significantly shorter latencies”.

Turning to `C[C@]12N[C@H](Cc3ccccc31)c1ccccc12` [MK-801, (+)-5-methyl-10,11-dihydro-5H-dibenzo[a,d]cyclohepten-5,10-imine maleate], the “results in in vivo models of stroke” value in data set [3] is on record as “good results”. The “activity in mouse audiogenic tests” value with mouse was “good activity”. Further, the “percentage of animals that fell from the rotarod” value came out at 38% in the data set with rats [2] (0.01 mg/kg i.v., 15 min.); 13% in the data set with rats [2] (0.01 mg/kg i.v., 60 min.); 25% in the data set on rats [2] (0.01 mg/kg i.v., 120 min.); 86% in the data set on rats [2] (0.05 mg/kg i.v., 15 min.); 57% in the data set with rats [2] (0.05 mg/kg i.v., 60 min.); 29% in the data set on rats [2] (0.05 mg/kg i.v., 120 min.).

For the compound `CSc1ccc(Cl)c(NC(=N)N(C)c2cccc([S+](C)[O-])c2)c1` (racemic) [compound (I), N-(2-chloro-5-methylthiophenyl)-N′-(3-methylsulfinylphenyl)-N′-methylguanidine], the “% reduction in total lesion volume” value in the data set on rats [1] (setting [5]) amounted to 24%; in the data set on rats [1] (total dose 4.5 mg/kg i.v. infusion), 32%; in the data set on rats [1] (total dose 9 mg/kg i.v. infusion), 46%; with rat pups (i.p. total dose of 10 mg/kg, 7.8% O2 for 78 minutes) it was 60%; in the data set on rat pups (i.p. total dose of 20 mg/kg, 7.8% O2 for 78 minutes) it was 100%. In addition, the “lethality of pre-testing doses” value in the data set on rats [2] (rat, in vivo) was “lethal”. In addition, the “behavioral effects observed in Irwin screen” value was “excitation (120-180′) sterotypies (sniffing 60-180′) fore-paw treading (120′) loss of traction (2 of 3, 120′)” with rats [4] (4 mg/kg i.v.) and “excitation (30-180′) sterotypies (head-weaving to 180′) fore-paw treading (to 180′) loss of traction (to 180′) hypothermia” in the data set on rats [4] (16 mg/kg i.v.).

On to `CSc1ccc(Cl)c(NC(=N)N(C)c2cccc([S+](C)[O-])c2)c1` (single isomer, unassigned; (-)) [compound (IA), (−)-N-(2-chloro-5-methylthiophenyl)-N′-(3-methylsulfinylphenyl)-N′-methylguanidine], for which the “% reduction in total lesion volume” value in the data set on rats [1] (setting [6]) is given as 1%. For the same compound, the “% reduction in total lesion volume” value with rats [1] (setting [7]) is 22%. Also, in the data set on rats [2] (rat, in vivo), the “latency for falling from the rotarod (falling times)” value is recorded as “no statistically significant differences” and the “latency for falling from the rotarod vs control groups” value was “significantly shorter latencies”.

Source of the values: patent US6774263B1, “Pharmaceutically active compound and methods of use” (Cambridge Neuroscience, Inc., priority 1997, dated 2004).
